# Data taken from patent US20130266557A1, “METHODS FOR TREATMENT OF A SARCOMA USING AN EPIMETABOLIC SHIFTER (COENZYME Q10)” (priority 2009, published 2013).
# Assays:
# [1] = Level and form of CoQ10 in mitochondrial enriched preparations; assay type: cell-based
# Method: Experiments were carried out to confirm the entry of CoQ10 into cells and to determine the level and form of CoQ10 present in the cells. In particular, the level of Coenzyme Q10, as well as the form of CoQ10 (i.e., oxidized or reduced), present in the mitochondria was determined by analyzing mitochondrial enriched preparations from cells treated with CoQ10. […] In addition, changes in levels of proteins from mitochondria enriched samples were analyzed by using 2-D gel electrophoresis and protein identification by mass spectrometry characterization.
# [2] = system: cancer; conditions: Mazzio 2006; cited from earlier work
# [3] = system: NCIES0808 cells; assay: Real-time PCR, Human Mitochondrial arrays; assay type: cell-based; conditions: CoQ10 doses and time points examined (50/100 uM; 3-48 hours)
# Method: NCIES0808 cells were plated in T25 flasks at a density of 2×10^6 cells per flask in media or media containing 50 uM/100 uM Q10. All treatment groups were run in triplicate. Cells were harvested at 0, 3, 6, 24 or 48 hours. Pictures were taken to examine cell morphology before harvesting. To harvest cells, media was removed but saved to be able to collect floating apoptotic cells. Cells were trypsinized with 1 ml of trypsin-EDTA and the enzyme action was stopped by addition of 4 ml complete media. Trypsinized cells were added to the appropriate tube containing the media with dead cells. Cells were centrifuged at 1200 rpm for 5 minutes and media was aspirated leaving behind the cell pellet for RNA extraction. RNA isolation from cell pellets was carried out with the RNeasy kit (Qiagen, Valencia Calif.) according to the manufacturer's instructions. RNA samples were eluted from spin columns in water; absorbance was measured at 260 nm, 230 nm and 280 nm. The purity of RNA was evaluated by the 260/230 and 280/230 ratios. The concentration of RNA in all of the samples was calculated from absorbance values at […]. […] The ct values from each of the samples were normalized to three housekeeping genes and fold regulation of Q10 treated groups was compared to time matched controls from cells grown in regular media was calculated. […]
# [4] = system: cancer patients; conditions: eight case histories, oral CoQ10; cited from earlier work
# [5] = system: Ewing JDT cell line; assay: Protein expression in Ewing JDT cell line; assay type: cell-based
# [6] = system: NCIES0808 cells; assay: Real-time PCR, Human Diabetes Arrays; assay type: cell-based
# Method: NCIES0808 cells were plated in T25 flasks at a density of 2×10^6 cells per flask in media or media containing 50 uM/100 uM Q10. All treatment groups were run in triplicate. Cells were harvested at 0, 3, 6, 24 or 48 hours. Pictures were taken to examine cell morphology before harvesting. To harvest cells, media was removed but saved to be able to collect floating apoptotic cells. Cells were trypsinized with 1 ml of trypsin-EDTA and the enzyme action was stopped by addition of 4 ml complete media. Trypsinized cells were added to the appropriate tube containing the media with dead cells. Cells were centrifuged at 1200 rpm for 5 minutes and media was aspirated leaving behind the cell pellet for RNA extraction. RNA isolation from cell pellets was carried out with the RNeasy kit (Qiagen, Valencia Calif.) according to the manufacturer's instructions. RNA samples were eluted from spin columns in water; absorbance was measured at 260 nm, 230 nm and 280 nm. The purity of RNA was evaluated by the 260/230 and 280/230 ratios. The concentration of RNA in all of the samples was calculated from absorbance values at […]. First strand cDNA was synthesized from 0.5 ug of all RNA samples using instructions provided with the First strand kit (SABiosciences, Frederick, Md.). The synthesized first strand from a sample was dispensed equally in a PCR array plate containing primers within a pathway (Angiogenesis, Diabetes and Mitochondria) (SABiosciences Corporation, Frederick, Md.). The arrays were amplified with real time PCR using the SYBR green detection methods using manufacturer approved protocols. The ct values from each of the samples were normalized to three housekeeping genes and fold regulation of Q10 treated groups was compared to time matched controls from cells grown in regular media was calculated.
# The experiments described in this example were performed to test the overall hypothesis that Q10 would have an impact on expression of multiple genes in Ewing's sarcoma cells. The mRNA from NCIES0808 cells treated with 50 μM or 100 μM Q10 for various times was evaluated by RT-PCR against a panel of target proteins involved in human diabetes, human angiogenesis or human mitochondrial pathways.
# Ct values obtained from a real time thermocycler were loaded onto the analysis tool on the SABiosciences website for calculation of fold regulation compared to cells with media. The genes that are included in the tables below are those that show a p value of close to 0.05.
# [7] = system: NCI-ES-0808 cells; assay: Cell morphology by microscopy; assay type: cell-based, human
# Method: NCIES0808 cells were plated in T25 flasks at a density of 2×10^6 cells per flask in media or media containing 50 uM/100 uM Q10. All treatment groups were run in triplicate. Cells were harvested at 0, 3, 6, 24 or 48 hours. Pictures were taken to examine cell morphology before harvesting. To harvest cells, media was removed but saved to be able to collect floating apoptotic cells. Cells were trypsinized with 1 ml of trypsin-EDTA and the enzyme action was stopped by addition of 4 ml complete media. Trypsinized cells were added to the appropriate tube containing the media with dead cells. Cells were centrifuged at 1200 rpm for 5 minutes and media was aspirated leaving behind the cell pellet for RNA extraction. […] RNA samples were eluted from spin columns in water; absorbance was measured at 260 nm, 230 nm and 280 nm. The purity of RNA was evaluated by the 260/230 and 280/230 ratios. The concentration of RNA in all of the samples was calculated from absorbance values at […]. […] The ct values from each of the samples were normalized to three housekeeping genes and fold regulation of Q10 treated groups was compared to time matched controls from cells grown in regular media was calculated.
# The morphology of NCI-ES-0808 cells was monitored following treatment with CoQ10. […]
# [8] = rats, oral; cited from earlier work
# [9] = system: keratinocytes and dermal fibroblasts; assay: Proliferation and migration of normal cells; assay type: cell-based; conditions: including keratinocytes and dermal fibroblasts
# Source text: Moreover, a surprising divergent effect was observed on normal cells as compared to oncogenic cells.
# [10] = system: normal fibroblast; assay: Bcl2 level on co-administration with VEGF; assay type: cell-based; conditions: co-administration of CoQ-10 and VEFG
# Source text: The term “Multidimensional Intracellular Molecule (MIM)”, is an isolated version or synthetically produced version of an endogenous molecule that is naturally produced by the body and/or is present in at least one cell of a human. A MIM is capable of entering a cell and the entry into the cell includes complete or partial entry into the cell as long as the biologically active portion of the molecule wholly enters the cell. MIMs are capable of inducing a signal transduction and/or gene expression mechanism within a cell. MIMs are multidimensional because the molecules have both a therapeutic and a carrier, e.g., drug delivery, effect. MIMs also are multidimensional because the molecules act one way in a disease state and a different way in a normal state.
substance,measurement,setting,value
Coenzyme Q10 [CoQ10],Level of Coenzyme Q10 present in the mitochondria,[1]; addition of exogenous Q10,increase in a time and dose dependent manner
same,Form of CoQ10 present in the mitochondria,[1]; mitochondrial enriched preparations from treated cells,primarily in oxidized form
same,Lethality against cancer,[2],did not find CoQ10 to be as lethal as expected
same,Genes modulated on Human Mitochondrial arrays,[3],did not reveal any modulated genes
same,Survival of cancer patients on therapy with CoQ10,[4],5-15 years
same,increase in Caspase 3 expression,"[5]; 100 μM CoQ10, within one hour after exposure",30%
same,Caspase 3 expression,[5]; one hour after CoQ10 treatment,significant increase
same,p53 expression,[5]; one hour after treatment with CoQ10,significant increase
same,"Pattern of regulation, FOXP3 mRNA","[6]; 6 hours, 50 uM Q10",Upregulation at 6 hours with 50 uM and 100 uM Q10.
same,"Pattern of regulation, FOXP3 mRNA","[6]; 6 hours, 100 uM Q10",Upregulation at 6 hours with 50 uM and 100 uM Q10.
same,"Pattern of regulation, GCGR mRNA","[6]; 6 hours, 100 uM Q10",Upregulation at 6 hours with 100 uM Q10.
same,"Pattern of regulation, GPD1 mRNA","[6]; 6 hours, 100 uM Q10",Upregulation at 6 hours with 100 uM Q10.
same,"Pattern of regulation, INPPL1 mRNA","[6]; 6 hours, 100 uM Q10",Upregulation at 6 hours with 100 uM Q10.
same,"Pattern of regulation, IRS2 mRNA","[6]; 6 hours, 100 uM Q10",Upregulation at 6 hours with 100 uM Q10.
same,"Pattern of regulation, ADRB mRNA","[6]; 24 hours, 100 uM Q10",Upregulation at 24 hours with 100 uM Q10.
same,"Pattern of regulation, DUSP4 mRNA","[6]; 24 hours, 100 uM Q10",Upregulation at 24 hours with 100 uM Q10.
same,"Pattern of regulation, FOX C2 mRNA","[6]; 24 hours, 100 uM Q10",Upregulation at 24 hours with 100 uM Q10
same,"Pattern of regulation, HMOX1 mRNA","[6]; 24 hours, 100 uM Q10",Upregulation at 24 and 48 hours with 100 uM Q10.
same,"Pattern of regulation, VEGFA mRNA","[6]; 24 hours, 100 uM Q10",Upregulation at 24 hours with 100 uM Q10 and 48 hours
same,"Pattern of regulation, VEGFA mRNA","[6]; 48 hours, 50 uM Q10",Upregulation at 24 hours with 100 uM Q10 and 48 hours
same,"Pattern of regulation, CEACAM1 mRNA","[6]; 48 hours, 100 uM Q10",Upregulation at 48 hours with 100 uM Q10.
same,"Pattern of regulation, HMOX1 mRNA","[6]; 48 hours, 100 uM Q10",Upregulation at 24 and 48 hours with 100 uM Q10.
same,"Pattern of regulation, IL4R mRNA","[6]; 48 hours, 100 uM Q10",Upregulation at 48 hours with 100 uM Q10.
same,Differences in cell number or morphology (FIG. 1 legend),"[7]; 3, 6, 24, 48 hours, 50 uM and 100 uM Q10",no distinct differences in either cell number or morphology
same,"Differences in morphology, apoptotic cells or cell number by microscopy","[7]; among treatment groups, 3 hrs and 6 hrs post treatment (FIG. 1)","No differences in morphology, number of visually ascertainable apoptotic cells or cell number"
same,Fraction of orally-administered CoQ10 absorbed,[8],2-3%
same,Effect on normal cells,[9],increased proliferation and migration
same,Level of Bcl2,[10],no effect on the levels of Bcl2
